Earlier results as cited in US10034864B2, “1,2,5-oxadiazoles as inhibitors of indoleamine 2,3-dioxygenase” (Incyte Corporation, priority 2008, dated 2018).

What was measured:
LLC tumors = LLC tumors in C57Bl/6 mice, versus placebo (Friberg 2002)
P815 tumor = conditions: pre-immunized immune-competent mice challenged with tumor cells (Uyttenhove 2003)

In the case of `Cn1cc(C[C@H](N)C(=O)O)c2ccccc21` [Example 1-MT, 1-methyl-tryptophan], the formation of tumors (LLC tumors) is given as “markedly delayed” and the growth of tumors (P815 tumor) is given as “inhibited”.
